This data set can be described thus: solvent given as SMILES.

Several values for one entry are separate records, joined by “and”; a condition that tells them apart may be missing. Equal entries are not always repeated.

Drawing on the Deep4Chem optical property database, this text covers absorption maximum for 30 compounds.

As to `CCN(CC)c1ccc2cc(-c3ccc(-c4ccc(-c5cc6ccccc6oc5=O)cc4)cc3)c(=O)oc2c1`, where the note is “in ClCCl”, the absorption maximum was 409 nm.
In turn, `O=C(c1ccc(C(=O)c2ccc(N3c4ccccc4Oc4ccccc43)cc2)cc1)c1ccc(N2c3ccccc3Oc3ccccc32)cc1` displayed an absorption maximum (in Cc1ccccc1) of 425 nm.
With `COC(=O)C(NC(=O)OC(C)(C)C)c1ccc2oc(-c3cccc(Oc4ccccc4)c3)nc2c1` (stereo unspecified), the absorption maximum is, setting by setting: (in CC1CCCCC1) 321 nm; (in CC#N) 305 nm; (in CO) 305 nm.
In the case of `CN(C)c1ccc(/C=C/C=C/c2ccc(C#N)cc2)cc1`, the absorption maximum by setting is: (in CC#N) 402 nm; (in CCCC#N) 410 nm; (in CCCCCC) 400 nm; (in CCOCC) 400 nm.
In turn, `CCCCCCCCC1(CCCCCCCC)c2cc(C=O)ccc2-c2ccc(/C=C/c3ccc(N(c4ccccc4)c4ccccc4)cc3)cc21` came in with an absorption maximum (in C1CCOC1) of 406 nm; an absorption maximum (in C1COCCO1) of 411 nm; an absorption maximum (in CC#N) of 406 nm; an absorption maximum (in CC(C)=O) of 409 nm; an absorption maximum (in CCCCCC) of 405 nm; an absorption maximum (in CCOC(C)=O) of 409 nm. This compound yielded an absorption maximum (in CN(C)C=O) of 410 nm; an absorption maximum (in CS(C)=O) of 408 nm; an absorption maximum (in Cc1ccccc1) of 411 nm; an absorption maximum (in ClC(Cl)Cl) of 409 nm; an absorption maximum (in ClCCl) of 411 nm.
Under “in C1CCOC1”, `CC1=C(c2ccc(-c3nc(-c4ccccc4)c(-c4ccccc4)[nH]3)cc2)S[C@]2(C)C1=C1C(=C3c4ccccc4C(C)[C@]32C)C(F)(F)C(F)(F)C1(F)F` (stereo partly specified) had an absorption maximum of 589 nm.
Regarding `COc1cccc(-n2c(-c3ccc(O)cc3)nc(C)c2C)c1`, the absorption maximum is reported as 288 nm (in CC#N), 292 nm (in CCO) and 287 nm (in CO).
Turning to `Cc1nc(-c2ccc(-n3c4ccccc4c4ccccc43)cc2)cc(-c2ccc(-n3c4ccccc4c4ccccc43)cc2)n1`, the absorption maximum reads like this: (in C1CCOC1) 343 nm; (in CN(C)C=O) 343 nm; (in Cc1ccccc1) 355 nm; (in ClC(Cl)Cl) 343 nm.
On to `CCN(CC)/C(C)=N\c1ccc2c3c(cccc13)C(=O)c1ccccc1-2`, for which the absorption maximum reads like this: (in C1CCOC1) 472 nm; (in CCCCCC) 444 nm; (in CCO) 473 nm; (in CCOC(C)=O) 463 nm; (in CN(C)C=O) 479 nm; (in CO) 472 nm. Besides, the absorption maximum runs as follows: (in Cc1ccccc1) 461 nm; (in ClC(Cl)(Cl)Cl) 467 nm; (in ClC(Cl)Cl) 467 nm; (in ClCCl) 467 nm; (in c1ccccc1) 462 nm.
For `CC(C)c1cccc(C(C)C)c1N1C(=O)c2cccc3c(Oc4ccc(Cl)cc4)ccc(c23)C1=O`, for the setting “in ClCCl”, the absorption maximum is listed as 360 nm.
For `O=[N+]([O-])c1ccc(/C=C/c2c[nH]c3ccccc23)cc1`, the absorption maximum came to 410 nm (in CC#N), 393 nm (in CCCCCCC), 413 nm (in CO) and 418 nm (in O).
Consider `CC1=[N+]2C(=C(c3c4ccccc4cc4ccccc34)c3ccc(C)n3[B-]2(F)F)C=C1`, for which the absorption maximum runs as follows: (in C1CCOC1) 517 nm; (in CC#N) 514 nm; (in CCCCCC) 515 nm and 516 nm; (in CCO) 515 nm; (in CN(C)C=O) 517 nm; (in CO) 517 nm. Besides, the absorption maximum was determined as 519 nm (in CS(C)=O), 519 nm (in Cc1ccccc1), 518 nm (in ClC(Cl)Cl) and 518 nm (in ClCCl).
For `CCN(CC)c1ccc2cc(/C=C/c3cccc[n+]3CCCS(=O)(=O)[O-])c(=O)oc2c1`, the absorption maximum is, setting by setting: (in C1CCOC1) 513 nm; (in CC#N) 486 nm; (in CC(C)=O) 530 nm; (in CS(C)=O) 494 nm; (in Cc1ccccc1) 487 nm; (in O) 481 nm. The same compound had an absorption maximum (in OCC(O)CO) of 496 nm.
In turn, `CN(C)c1nc(N(C)C)c2nc(C#N)n(Cc3ccccc3)c2n1` showed an absorption maximum (in C1COCCO1) of 345 nm, an absorption maximum (in CC#N) of 344 nm, an absorption maximum (in CO) of 342 nm and an absorption maximum (in ClCCl) of 348 nm.
`CC1(C)c2ccccc2N(c2ccc3c(c2)Oc2ccccc2P3(=O)c2ccccc2)c2ccccc21` (stereo unspecified) registered an absorption maximum (in Cc1ccccc1) of 348 nm.
With `CC(=O)Nc1cc2ccc3cccc4ccc(c1)c2c34`, the absorption maximum runs as follows: (in CC#N) 334 nm; (in CCCCOCCCC) 336 nm; (in CO) 334 nm.
For the compound `S=P1(c2ccccc2)C(c2ccccc2)=Cc2cc3ccccc3cc21` (stereo unspecified), the absorption maximum (in ClCCl) amounted to 387 nm.
For the compound `OC1(c2ccc(-c3cccs3)s2)CCC1`, the absorption maximum (in C1CCOC1) amounted to 311 nm; the absorption maximum (in CC#N) amounted to 309 nm; the absorption maximum (in CCCCCC) came out at 308 nm; the absorption maximum (in CCO) is recorded as 310 nm; the absorption maximum (in OCCOCCO) is listed as 314 nm; the absorption maximum (in c1ccncc1) is listed as 316 nm.
`c1ccc(-c2nc(-c3ccccc3)nc(-c3ccc(-n4c5ccc(-c6ccc7sc8ccccc8c7c6)cc5c5cc(-c6ccc7sc8ccccc8c7c6)ccc54)cc3)n2)cc1`: the absorption maximum (in Cc1ccccc1) is recorded as 377 nm.
For `Cc1ccc(C)c(C)c1`, for the setting “in C1CCCCC1”, the absorption maximum is 263.78 nm.
With `Cc1cc(O)c(-c2[nH]c(=O)n3c2-c2ccccc2C3=O)cc1Cl`, the absorption maximum stood at 393 nm (in CC#N), 395 nm (in CO) and 399 nm (in ClCCl).
Where the note is “in ClCCl”, `F[B-]1(F)OC(C#Cc2ccccc2)=C2CCc3ccccc3C2=[O+]1` displayed an absorption maximum of 431 nm.
Regarding `COc1ccc(-c2ccc(-c3c4c(nc5ccccc35)-c3cc5c(cc3CC4)-c3nc4ccccc4c(-c4ccc(-c6ccc(OC)cc6)cc4)c3CC5)cc2)cc1`, the absorption maximum (in ClC(Cl)Cl) came to 376 nm.
Take `CCCCCCCN1C(=CC2=C([O-])C(=Cc3sc4ccccc4[n+]3CCCCCCC)C2=C(C#N)C#N)Sc2ccccc21`: the absorption maximum turned out to be 709 nm (in C1COCCO1), 696 nm (in CCO), 696 nm (in CN(C)C=O) and 704 nm (in ClC(Cl)Cl).
`Brc1ccc(N2c3c(sc4ccccc34)Sc3sc4ccccc4c32)cc1` gave an absorption maximum (in ClCCl) of 309 nm.
On to `N#Cc1cc(-n2c3ccccc3c3ccccc32)c(-n2c3ccccc3c3ccccc32)cc1C#N`, for which the absorption maximum (in C1CCOC1) came to 368 nm, the absorption maximum (in CC#N) was found to be 367 nm, the absorption maximum (in Cc1ccccc1) is given as 375 nm and the absorption maximum (in ClCCl) was determined as 364 nm.
`O=C1OC(c2ccccc2)=C/C1=C\c1ccccc1` came in with an absorption maximum (in C1COCCO1) of 442 nm.
For `CCCCCCN1C(=O)c2cccc3c(-c4sc(-c5ccc6c7c(cccc57)C(=O)N(CCCCCC)C6=O)c5c4OCCO5)ccc(c23)C1=O`, the absorption maximum (in ClC(Cl)Cl) was found to be 416 nm.
Consider `CCCCN1C(=O)C2=C(c3ccc(Br)cc3)NC(=O)C2=C1c1ccc(Br)cc1`, for which the absorption maximum (in ClCCl) is recorded as 477 nm.
For `Cc1ccc(C2=C3C=CC(Sc4ccccc4)=[N+]3[B-](F)(F)n3c(Sc4ccccc4)ccc32)cc1`, for the setting “in C1CCOC1”, the absorption maximum worked out at 577 nm.
